Experimental data: patent publication US11014917B2, “5-fluoro-c-(aryl or heterocyclyl)-glycoside derivatives useful as dual SGLT1 / SGLT2 modulators” (Janssen Pharmaceutica NV, priority 2017, dated 2021)

What was measured:
human SGLT1 = target: T1, human SGLT1 (Homo sapiens, UniProt P13866); experiment: SGLT1 assay: Na-dependent 14C-AMG uptake in CHO-K1 cells stably expressing human SGLT1; type: cell-based; details: for IC50: average if tested more than once; for SGLT1 %-inhibition / inhibition at 0.3 µM: @ 0.3 μM
T1 construct: expressed in transfected cells
T1 sequence (P13866 1-664): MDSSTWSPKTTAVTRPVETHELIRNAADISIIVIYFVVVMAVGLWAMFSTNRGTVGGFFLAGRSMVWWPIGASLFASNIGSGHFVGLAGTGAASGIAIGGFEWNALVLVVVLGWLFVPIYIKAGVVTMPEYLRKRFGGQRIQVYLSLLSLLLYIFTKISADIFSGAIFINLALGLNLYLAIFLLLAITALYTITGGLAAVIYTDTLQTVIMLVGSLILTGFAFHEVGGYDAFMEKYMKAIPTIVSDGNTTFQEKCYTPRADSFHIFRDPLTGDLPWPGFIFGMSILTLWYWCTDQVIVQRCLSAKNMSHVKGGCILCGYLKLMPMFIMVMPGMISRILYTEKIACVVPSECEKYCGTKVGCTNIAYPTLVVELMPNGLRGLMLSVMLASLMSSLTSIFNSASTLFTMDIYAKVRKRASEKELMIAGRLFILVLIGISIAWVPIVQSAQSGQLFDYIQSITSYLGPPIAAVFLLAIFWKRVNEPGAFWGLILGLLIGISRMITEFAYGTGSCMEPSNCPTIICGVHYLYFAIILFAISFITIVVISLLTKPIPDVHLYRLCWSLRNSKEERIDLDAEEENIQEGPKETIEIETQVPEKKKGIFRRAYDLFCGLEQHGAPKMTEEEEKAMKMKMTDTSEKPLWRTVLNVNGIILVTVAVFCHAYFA
Description: (§1) The ability of the compounds of formula (I) of the present invention to treat an SGLT-mediated condition was determined using the following procedures:
(§2) SGLT1 and SGLT2 were cloned in form of cDNA from human small intestine (Genbank M24847), and from human kidney (Genbank M95549), respectively. Subsequently, each full cDNA was subcloned into pcDNA with each construct's integrity verified through follow-on sequencing. To generate CHO-K1 cells that stably express human SGLT1 or human SGLT2, CHO-K1 cells were transfected using DMRIE-C reagent (Life Technologies, Gaithersburg, Md.). Transfected cells were then selected in the presence of 500 μg/ml of the Geneticin (G418 Cellgro Catalog No. 30234-Cl)
(§3) Individual clones were then characterized using the following cell-based assay for sodium-dependent glucose transport:
(§4) Inhibition of SGLT1 and SGLT2 activity was assessed in CHO K1 cells stably expressing either human SGLT1 or SGLT2, using the SGLT specific glucose analog methyl-glucopyranoside (Sigma Catalog No. M-9376). Cells were plated (45,000 cells/well) in white wall 96-well plates (COSTAR, Cat #3903) for 24 hours in growth medium, then a final concentration of 10 mM Na-Butyrate (ALDRICH Cat #30341-0) was added. The cells were incubated for 24 hours. On the day of the assay, cells were rinsed and treated with test compounds (at concentrations of 0.001 μM to 10 μM) in assay buffer (50 mM HEPES, 20 mM Tris base, 5 mM KCl, 1 mM MgCl2, 1 mM CaCl2 and 137 mM NaCl, pH 7.4) for 10 minutes. Cells were then incubated with ^14C-a-methyl-d-glucopyranoside (AMG, Amersham Catalog No. CFB 76), using 0.07 μCi per well in 500 μM AMG final concentration. The cells were incubated for 2 hours at 37° C. with 5% CO2 and washed two times with ice-cold Phosphate Buffer Solution (Cellgro Catalog No. 21030-CV). The cells were then solubilized by adding 60 μl of MICROSCINT™20 and the Na-dependent ^14C-AMG uptake was quantified by measuring radioactivity. Plates were counted in a TopCount (Packard, Meriden, Conn.)
(§5) Representative compounds of the present invention were tested according to the procedures as described in Biological Example 1 and 2 above, with results as listed in Table 5, below. Results are reported as the %-inhibition or IC50 value. Variability for the functional assay was typically within 20%.

human SGLT2 = target: T2, human SGLT2 (Homo sapiens, UniProt P31639); experiment: SGLT2 assay: Na-dependent 14C-AMG uptake in CHO-K1 cells stably expressing human SGLT2; type: cell-based; details: for IC50: average if tested more than once; for SGLT2 %-inhibition / inhibition at 0.3 µM: @ 0.3 μM
T2 construct: expressed in transfected cells
T2 sequence (P31639 1-672): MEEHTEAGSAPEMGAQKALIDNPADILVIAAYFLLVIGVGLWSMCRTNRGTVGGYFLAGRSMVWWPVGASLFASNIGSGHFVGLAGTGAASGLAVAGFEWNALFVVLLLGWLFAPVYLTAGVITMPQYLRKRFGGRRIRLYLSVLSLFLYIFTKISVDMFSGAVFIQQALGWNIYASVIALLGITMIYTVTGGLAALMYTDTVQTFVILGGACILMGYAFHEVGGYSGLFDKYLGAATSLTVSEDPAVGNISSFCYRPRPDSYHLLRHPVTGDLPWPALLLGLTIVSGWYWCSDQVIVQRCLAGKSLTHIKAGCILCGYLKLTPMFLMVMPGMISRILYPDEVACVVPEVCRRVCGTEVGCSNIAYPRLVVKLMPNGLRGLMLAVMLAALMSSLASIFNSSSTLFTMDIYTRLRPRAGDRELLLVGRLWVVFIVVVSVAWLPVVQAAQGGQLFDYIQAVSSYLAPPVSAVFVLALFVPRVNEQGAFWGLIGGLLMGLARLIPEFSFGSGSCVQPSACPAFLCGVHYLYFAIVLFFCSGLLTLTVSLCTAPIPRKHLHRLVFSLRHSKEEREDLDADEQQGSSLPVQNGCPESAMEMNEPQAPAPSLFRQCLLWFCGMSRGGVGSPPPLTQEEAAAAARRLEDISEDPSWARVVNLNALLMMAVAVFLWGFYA
Description: as §1, §2, §3, §4, §5

SMILES | IC50 (human SGLT1) [µM] | IC50 (human SGLT2) [µM] | further results
Cc1cc(O)c([C@@H]2O[C@H](CO)[C@@H](F)[C@H](O)[C@H]2O)cc1Cc1cc2c(s1)CCN(C(=O)N1CCCC1)C2 [Compound 66, (2-(5-((2S,3R,4R,5S,6R)-5-fluoro-3,4-dihydroxy-6-(hydroxymethyl)tetrahydro-2H-pyran-2-yl)-4-hydroxy-2-methylbenzyl)-6,7-dihydrothieno[3,2-c]pyridin-5(4H)-yl)(pyrrolidin-1-yl)methanone] | 0.04 | 0.014 | –
CC1COc2c(Cc3ccc4c(c3)OCCO4)cc(C3OC(CO)C(F)C(O)C3O)cc21 (mixture of isomers) [Compound 95] | – | – | SGLT1 %-inhibition (human SGLT1): 45.3% @ 0.3 μM; SGLT2 %-inhibition (human SGLT2): 62.7% @ 0.3 μM
Cc1cc(O)c([C@@H]2O[C@H](CO)[C@@H](F)[C@H](O)[C@H]2O)cc1Cc1cc2c(s1)CCCC2=O [Compound 119] | 0.156 | 0.011 | –
N#CN1CCc2sc(Cc3cc([C@@H]4O[C@H](CO)[C@@H](F)[C@H](O)[C@H]4O)c(O)cc3Cl)cc2C1 [Compound 114] | 0.109 | 0.005 | –
COC[C@H]1O[C@@H](c2cc(Cc3cc4ccccc4s3)c(C)cc2O)[C@H](O)[C@@H](O)[C@@H]1F [Compound 19] | – | – | SGLT1 %-inhibition (human SGLT1): 47.6% @ 0.3 μM; SGLT2 %-inhibition (human SGLT2): 68.1% @ 0.3 μM
OC[C@H]1O[C@@H](c2cc3c(c(Cc4ccc(OCF)cc4)c2)OCC3)[C@H](O)[C@@H](O)[C@@H]1F [Compound 133] | 0.236 | 0.006 | –
Cc1cc(O)c([C@@H]2O[C@H](CO)[C@@H](F)[C@H](O)[C@H]2O)cc1Cc1cc2c(s1)C(=O)CCO2 [Compound 129] | 0.176 | 0.007 | –
COc1cc(Cl)c([C@@H]2O[C@H](CC#N)[C@@H](F)[C@H](O)[C@H]2O)cc1Cc1cc2ccccc2s1 [Compound 26] | 0.847 | 0.982 | –
COc1cc(C)c(Cc2cc3c(s2)CCN(C#N)C3)cc1[C@@H]1O[C@H](CO)[C@@H](F)[C@H](O)[C@H]1O [Compound 110, 2-(5-((2S,3R,4R,5S,6R)-5-fluoro-3,4-dihydroxy-6-(hydroxymethyl)-tetrahydro-2H-pyran-2-yl)-4-methoxy-2-methylbenzyl)-6,7-dihydrothieno[3,2-c]pyridine-5(4H)-carbonitrile] | 1.42 | 0.005 | –
COC[C@H]1O[C@@H](c2cc(Cc3cc4ccccc4s3)c(OC)cc2O)[C@H](O)[C@@H](O)[C@@H]1F [Compound 9, (2S,3R,4R,5S,6R)-2-[5-(1-benzothiophen-2-ylmethyl)-2-hydroxy-4-methoxyphenyl]-5-fluoro-6-(methoxymethyl)oxane-3,4-diol] | 0.126 | 0.107 | –
Cc1c(Cc2ccc3c(c2)CCCO3)cc([C@@H]2O[C@H](CO)[C@@H](F)[C@H](O)[C@H]2O)c2c1CCO2 [Compound 130] | – | – | SGLT1 %-inhibition (human SGLT1): 44.8% @ 0.3 μM; SGLT2 %-inhibition (human SGLT2): 81.6% @ 0.3 μM
Cc1ccc([C@@H]2O[C@H](CO)[C@@H](F)[C@H](O)[C@H]2O)cc1Cc1cc2c(s1)CCN(C#N)C2 [Compound 92, 2-(5-((2S,3R,4R,5S,6R)-5-fluoro-3,4-dihydroxy-6-(hydroxymethyl)-tetrahydro-2H-pyran-2-yl)-2-methylbenzyl)-6,7-dihydrothieno[3,2-c]pyridine-5(4H)-carbonitrile] | – | – | inhibition at 0.3 µM (human SGLT1): 29%; inhibition at 0.3 µM (human SGLT2): 76.2%
Cc1ccc([C@@H]2O[C@H](CO)[C@@H](F)[C@H](O)[C@H]2O)cc1Cc1cc2c(s1)CCCC2=O [Compound 116] | – | – | SGLT1 %-inhibition (human SGLT1): 11.5% @ 0.3 μM; SGLT2 %-inhibition (human SGLT2): 78.0% @ 0.3 μM
Cc1cnc(N2CCc3sc(Cc4cc([C@@H]5O[C@H](CO)[C@@H](F)[C@H](O)[C@H]5O)c(O)cc4C)cc3C2)s1 [Compound 111] | 0.101 | 0.019 | –
[2H]C1([2H])Oc2ccc(Cc3cc([C@@H]4O[C@H](CO)[C@@H](F)[C@H](O)[C@H]4O)c(OC)c4c3OCC4)cc2OC1([2H])[2H] [Compound 172, (2S,3R,4R,5S,6R)-5-fluoro-6-(hydroxymethyl)-2-[4-methoxy-7-[(2,2,3,3-tetradeuterio-1,4-benzodioxin-6-yl)methyl]-2,3-dihydrobenzofuran-5-yl]tetrahydropyran-3,4-diol] | 0.045 | 0.007 | –
Cc1cnc(N2CCc3sc(Cc4cc([C@@H]5O[C@H](CO)[C@@H](F)[C@H](O)[C@H]5O)ccc4C)cc3C2)s1 [Compound 113] | – | – | SGLT1 %-inhibition (human SGLT1): 21.0% @ 0.3 μM; SGLT2 %-inhibition (human SGLT2): 53.9% @ 0.3 μM
[2H]C([2H])([2H])Oc1c([C@@H]2O[C@H](CO)[C@@H](F)[C@H](O)[C@H]2O)cc(C([2H])([2H])c2ccc3c(c2)OCCO3)c2c1CCO2 [Compound 161, (2S,3R,4R,5S,6R)-2-(7-((2,3-dihydrobenzo[b][1,4]dioxin-6-yl-)methyl-d2)-4-(methoxy-d3)-2,3-dihydrobenzofuran-5-yl)-5-fluoro-6-(hydroxymethyl)tetrahydro-2H-pyran-3,4-diol] | 0.052 | 0.007 | –
OCC1COc2c(Cc3ccc4c(c3)OCCO4)cc([C@@H]3O[C@H](CO)[C@@H](F)[C@H](O)[C@H]3O)cc21 (stereo partly drawn) [Compound 75, (2S,3R,4R,5S,6R)-2-(7-((2,3-dihydrobenzo[b][1,4]dioxin-6-yl)methyl)-3-(hydroxymethyl)-2,3-dihydrobenzofuran-5-yl)-5-fluoro-6-(hydroxymethyl)-tetrahydro-2H-pyran-3,4-diol] | – | – | inhibition at 0.3 µM (human SGLT1): 61.9%; inhibition at 0.3 µM (human SGLT2): 43.7%
Cc1cnc(N2CCc3sc(Cc4cc([C@@H]5O[C@H](CO)[C@@H](F)[C@H](O)[C@H]5O)ccc4C)cc3C2)s1 [Compound 122] | – | – | SGLT1 %-inhibition (human SGLT1): 31.7% @ 0.3 μM; SGLT2 %-inhibition (human SGLT2): 63.6% @ 0.3 μM
[2H]C([2H])(c1ccc2c(c1)OCCO2)c1cc([C@@H]2O[C@H](CO)[C@@H](F)[C@H](O)[C@H]2O)ccc1Cl [Compound 166] | 0.245 | 0.011 | –
COc1c(Cc2ccc3c(c2)SCCO3)cc([C@@H]2O[C@H](CO)[C@@H](F)[C@H](O)[C@H]2O)c2c1CCO2 [Compound 128, (2S,3R,4R,5S,6R)-2-(5-((2,3-dihydrobenzo[b][1,4]oxathiin-6-yl)methyl)-4-methoxy-2,3-dihydrobenzofuran-7-yl)-5-fluoro-6-(hydroxymethyl)-tetrahydro-2H-pyran-3,4-diol] | 0.187 | 0.062 | –
COc1cc(Cl)c([C@@H]2O[C@H](CO)[C@@H](F)[C@H](O)[C@H]2O)cc1Cc1cc2ccccc2s1 [Compound 21] | 0.313 | 0.112 | –
